Results: the NIST ThermoML archive (doi:10.1016/j.jct.2014.06.004)

What was measured:
[1] = xn = mol fraction of the nth substance listed; conditions: 100 kPa, Liquid; for speed of sound: Frequency=3 MHz, Sing-around technique in a fixed-path interferometer; for mass density: Vibrating tube method
[2] = refractive index (Na D-line) (dimensionless); xn = mol fraction of the nth substance listed; conditions: 100 kPa, Liquid, Standard Abbe refractometry

CCCCCCC(=O)O [heptanoic acid] + CCC(=O)O
Conditions	mass density, [1] [kg/m3]	refractive index, [2]	speed of sound, [1] [m/s]
293.15 K, x1 = 0.0539	985.8	1.39	1176
293.15 K, x1 = 0.1023	979.3	1.3929	1185
293.15 K, x1 = 0.2037	967.5	1.3982	1202
293.15 K, x1 = 0.3021	957.8	1.4026	1217
293.15 K, x1 = 0.4007	949.6	1.4066	1231
293.15 K, x1 = 0.5015	942.3	1.4102	1244
293.15 K, x1 = 0.6051	935.9	1.4135	1257
293.15 K, x1 = 0.7009	930.7	1.4162	1267
293.15 K, x1 = 0.8016	925.8	1.4188	1277
293.15 K, x1 = 0.9002	921.5	1.4212	1287
293.15 K, x1 = 0.95	919.5	1.4223	1291
293.15 K, x1 = 1	917.7	1.4234	1295
298.15 K, x1 = 0.0539	980.5	1.388	1158
298.15 K, x1 = 0.1023	974.2	1.3909	1166
298.15 K, x1 = 0.2037	962.5	1.3961	1184
298.15 K, x1 = 0.3021	953	1.4006	1199
298.15 K, x1 = 0.4007	944.9	1.4045	1213
298.15 K, x1 = 0.5015	937.7	1.4081	1226
298.15 K, x1 = 0.6051	931.1	1.4114	1239
298.15 K, x1 = 0.7009	926.3	1.4142	1249
298.15 K, x1 = 0.8016	921.4	1.4169	1260
298.15 K, x1 = 0.9002	917.2	1.4192	1269
298.15 K, x1 = 0.95	915.3	1.4203	1273
298.15 K, x1 = 1	913.5	1.4214	1278
303.15 K, x1 = 0.0539	975.2	1.3859	1139
303.15 K, x1 = 0.1023	969	1.3888	1148
303.15 K, x1 = 0.2037	957.5	1.394	1165
303.15 K, x1 = 0.3021	948.1	1.3985	1180
303.15 K, x1 = 0.4007	940.2	1.4024	1195
303.15 K, x1 = 0.5015	933.2	1.406	1208
303.15 K, x1 = 0.6051	926.9	1.4094	1220
303.15 K, x1 = 0.7009	921.9	1.4121	1231
303.15 K, x1 = 0.8016	917.1	1.4148	1242
303.15 K, x1 = 0.9002	913	1.4171	1251
303.15 K, x1 = 0.95	911.1	1.4183	1256
303.15 K, x1 = 1	909.3	1.4194	1260
308.15 K, x1 = 0.0539	970	1.3838	1120
308.15 K, x1 = 0.1023	963.8	1.3866	1129
308.15 K, x1 = 0.2037	952.5	1.3919	1146
308.15 K, x1 = 0.3021	943.3	1.3963	1162
308.15 K, x1 = 0.4007	935.5	1.4003	1176
308.15 K, x1 = 0.5015	928.6	1.4039	1190
308.15 K, x1 = 0.6051	922.4	1.4073	1202
308.15 K, x1 = 0.7009	917.5	1.4101	1213
308.15 K, x1 = 0.8016	912.8	1.4127	1224
308.15 K, x1 = 0.9002	908.8	1.4151	1233
308.15 K, x1 = 0.95	906.9	1.4162	1238
308.15 K, x1 = 1	905.1	1.4173	1242
313.15 K, x1 = 0.0539	964.7	1.3816	1101
313.15 K, x1 = 0.1023	958.6	1.3845	1110
313.15 K, x1 = 0.2037	947.5	1.3897	1128
313.15 K, x1 = 0.3021	938.4	1.3942	1144
313.15 K, x1 = 0.4007	930.8	1.3982	1158
313.15 K, x1 = 0.5015	924	1.4018	1172
313.15 K, x1 = 0.6051	918	1.4052	1185
313.15 K, x1 = 0.7009	913.1	1.408	1196
313.15 K, x1 = 0.8016	908.5	1.4107	1206
313.15 K, x1 = 0.9002	904.5	1.4131	1216
313.15 K, x1 = 0.95	902.7	1.4142	1220
313.15 K, x1 = 1	900.9	1.4153	1225
